Reference: US8664220B2, “Polycyclic compounds as lysophosphatidic acid receptor antagonists” (Amira Pharmaceuticals, Inc., priority 2009, dated 2014)
pIC50: −log10 of the molar value.

Key:
[1] = target: T1, human LPA1 (Homo sapiens, UniProt Q92633); experiment: LPA1 calcium flux assay; assay type: cell-based; settings: human LPA1 expressing CHO cells, stimulated with 10 nM LPA; read-out: HLPA1 Ca Flux IC50
T1 construct: the full-length cDNA for human LPA1 was obtained by PCR of the reverse transcription reaction; expressed in transfected cells
T1 sequence (Q92633 whole entry): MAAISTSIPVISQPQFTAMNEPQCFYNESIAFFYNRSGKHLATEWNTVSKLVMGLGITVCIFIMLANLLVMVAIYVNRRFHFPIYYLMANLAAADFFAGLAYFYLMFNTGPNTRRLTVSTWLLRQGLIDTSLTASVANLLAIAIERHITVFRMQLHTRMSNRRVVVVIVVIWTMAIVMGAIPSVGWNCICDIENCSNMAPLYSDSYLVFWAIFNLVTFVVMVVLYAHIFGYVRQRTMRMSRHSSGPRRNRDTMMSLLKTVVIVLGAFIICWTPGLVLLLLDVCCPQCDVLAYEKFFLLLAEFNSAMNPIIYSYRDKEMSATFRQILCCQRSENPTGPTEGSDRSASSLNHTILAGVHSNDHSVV
Procedure, shortened: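 CHO cells stably expressing human LPA1, serum-starved overnight and loaded with Calcium 4 dye in HBSS/20 mM Hepes/0.3% fatty-acid-free HSA, 1 h at 37 °C. Compounds pre-incubated 30 min at room temperature, then 10 nM LPA added; intracellular Ca2+ flux measured and IC50 from titration curves.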

[2] = tested on: A2058 human melanoma cells; experiment: LPA1 chemotaxis assay; assay type: cell-based; settings: LPA 100 nM, read-out: IC50, inhibition of LPA-driven chemotaxis
Method: Chemotaxis of the A2058 human melanoma cells was measured using the Neuroprobe ChemoTx® System plates (8 μm pore size, 5.7 mm diameter sites). The filter sites were coated with 0.001% fibronectin (Sigma) in 20 mM Hepes, pH 7.4 and allowed to dry. A2058 cells were serum-starved for 24 hours, then harvested with Cell Stripper and resuspended in DMEM containing 0.1% fatty-acid-free bovine serum albumin (BSA) to a concentration of 1×10^6/ml. Cells were mixed with an equal volume of test compound (2×) in DMEM containing 0.1% fatty-acid-free BSA and incubated at 37° C. for 15 minutes. LPA (100 nM in DMEM containing 0.1% fatty-acid-free BSA) or vehicle was added to each well of the lower chamber and 50 μl of the cell suspension/test compound mix was applied to the upper portion of the ChemoTx plate. Plates were incubated at 37° C. for three hours and then the cells removed from the upper portion by rinsing with PBS and scraping. The filter was dried then stained with HEMA 3 Staining System (Fisher Scientific). The absorbance of the filter was read at 590 nm and IC50s were determined using Symyx Assay Explorer.

[3] = tested on: bleomycin-induced lung fibrosis; experiment: Bleomycin-induced lung fibrosis model in mice; assay type: in vivo, mouse; settings: acute setting (3 day)
From the text: Bleomycin-induced Lung Fibrosis Model in Mice Female CD-1 mice (Harlan, 25-30 g) are housed 4 per cage, given free access to food and water and allowed to acclimate for at least 7 days prior to test initiation. After the habituation phase, mice are lightly anesthetized with isoflurane (5% in 100% O2) and administered with bleomycin sulfate (0.01-5 U/kg, Henry Schein) via intratracheal instillation (Cuzzocrea S et al. Am J Physiol Lung Cell Mol Physiol. 2007 May; 292(5):[…]-104. Epub 2007 Jan. 12.). Mice are returned to their cages and monitored daily for the duration of the experiment. Test compound or vehicle is delivered po, ip or sc daily. The route and frequency of dosing is based on previously determined pharmacokinetic properties. […] BALF is analyzed for concentrations of inflammatory, pro-fibrotic and tissue injury biomarkers including transforming growth factor β1, hyaluronic acid, tissue inhibitor of metalloproteinase-1, matrix matelloproteinase-7, connective tissue growth factor and lactate dehydrogenase activity, using commercially available ELISA. […] Total cell counts are then obtained using a Hemavet hematology system (Drew Scientific, Wayne, Pa.) and differential cells counts are determined using Shandon cytospin (Thermo Scientific, Waltham, Mass.). […] The data are plotted using Graphpad prism and statistical differences between groups determined.

[4] = tested on: human foetal lung fibroblasts; settings: cited from earlier work
[5] = tested on: renal fibrosis, unilateral ureteral obstruction (UUO); settings: UUO mice; cited from earlier work
[6] = tested on: mouse epithelial renal cell line, MCT; settings: co-treatment with LPA, MCT cells; cited from earlier work
[7] = tested on: pancreatic cancer cell lines; settings: cited from earlier work
[8] = tested on: nerve-injured mice; settings: pretreatment; cited from earlier work

Row | Structure (SMILES) | pIC50 [1] | other results
1 | Cc1noc(-c2ccc(-c3ccc(C4(C(=O)O)CC4)cc3)cc2)c1C(O)c1cn(Cc2ccccc2)nn1 (stereo not shown) [Compound 1-25, 1-(4′-{4-[(1-Benzyl-1H-[1,2,3]triazol-4-yl)-hydroxy-methyl]-3-methyl-isoxazol-5-yl}-biphenyl-4-yl)-cyclopropanecarboxylic acid] | > 6.52 | pIC50 [2]: > 7.00
2 | Cc1noc(-c2ccc(-c3ccc(C4(C(=O)O)CC4)cc3)cc2)c1C(O)c1cn(Cc2ccccc2)nn1 (single isomer, unassigned) [Compound 1-41, 1-(4′-{4-[(1-Benzyl-1H-[1,2,3]triazol-4-yl)-hydroxy-methyl]-3-methyl-isoxazol-5-yl}-biphenyl-4-yl)-cyclopropanecarboxylic acid] | > 6.52 | pIC50 [2]: > 7.00; collagen concentration in broncheoalveolar lavage fluid (BALF) [3]: significantly reduced; total protein concentration in broncheoalveolar lavage fluid (BALF) [3]: significantly reduced
3 | Cc1noc(-c2ccc(CSCCC(=O)O)cc2)c1NC(=O)OC(C)c1ccccc1Cl (stereo not shown) [Ki16425] | – | chemotaxis of human foetal lung fibroblasts induced by BAL from IPF patients [4]: blocked; development of renal fibrosis [5]: closely resembled the LPA1 (−/−) mice; LPA-induced increase in expression of the profibrotic cytokine CTGF [6]: almost completely suppressed; LPA-induced and ascites-induced invasion activity ([7]; highly peritoneal metastatic pancreatic cancer cell line): blocked; in vitro migration in response to LPA and peritoneal fluid (ascites) from pancreatic cancer patients ([7]; pancreatic cancer cell lines): effectively blocked
4 | C[C@@H](N)[C@H]1CC[C@H](C(=O)Nc2ccncc2)CC1 [Compound Y-27632] | – | allodynia and hyperalgesia [8]: completely abolished
5 | Cc1noc(-c2ccc(-c3ccc(C4(C(=O)O)CC4)cc3)cc2)c1CN1C(=O)OC[C@@H]1c1ccccc1 [Compound 1-14, 1-{4′-[3-Methyl-4-((S)-2-oxo-4-phenyl-oxazolidin-3-ylmethyl)-isoxazol-5-yl]-biphenyl-4-yl}-cyclopropanecarboxylic acid] | 4.30 to 6.00 | –
6 | Cc1noc(-c2ccc(-c3ccc(C4(C(=O)O)CC4)cc3)cc2)c1CN1CC(c2ccccc2)OC1=O (stereo not shown) [Compound 1-22, 1-{4′-[3-Methyl-4-(2-oxo-5-phenyl-oxazolidin-3-ylmethyl)-isoxazol-5-yl]-biphenyl-4-yl}-cyclopropanecarboxylic acid] | > 6.52 | –
7 | Cc1noc(-c2ccc(-c3ccc(C4(C(=O)O)CC4)cc3)cc2)c1Nc1cccc(-n2cccn2)n1 [Compound 1-123, 1-{4′-[3-Methyl-4-(6-pyrazol-1-yl-pyridin-2-ylamino)-isoxazol-5-yl]-biphenyl-4-yl}-cyclopropanecarboxylic acid] | > 6.52 | –
8 | Cc1noc(-c2ccc(-c3ccc(C4(C(=O)O)CCC4)cc3)cc2)c1Nc1cccc(-c2ccccc2)n1 [Compound 1-122, 1-{4′-[3-Methyl-4-(6-phenyl-pyridin-2-ylamino)-isoxazol-5-yl]-biphenyl-4-yl}-cyclobutanecarboxylic acid] | > 6.52 | –
9 | Cc1noc(-c2ccc(-c3ccc(C4(C(=O)O)CC4)cc3)cc2)c1[C@@H](O)c1cn([C@H](C)c2ccccc2)nn1 [Compound 1-67, 1-[4′-(4-{(R)-Hydroxy-[1-((R)-1-phenyl-ethyl)-1H-[1,2,3]triazol-4-yl]-methyl}-3-methyl-isoxazol-5-yl)-biphenyl-4-yl]-cyclopropanecarboxylic acid] | > 6.52 | –
10 | Cc1noc(-c2ccc(-c3ccc(C4(C(=O)O)CC4)cc3)cc2)c1Cn1ccc(-c2ccccc2)n1 [Compound 1-5, 1-{4′-[3-Methyl-4-(3-phenyl-pyrazol-1-ylmethyl)-isoxazol-5-yl]-biphenyl-4-yl}-cyclopropanecarboxylic acid] | > 6.52 | –
11 | Cc1noc(-c2ccc(-c3ccc(C4(CC(=O)O)CC4)cc3)cc2)c1C(O)c1nnc(Cc2ccccc2)o1 (stereo not shown) [Compound 1-60, [1-(4′-{4-[(5-Benzyl-[1,3,4]oxadiazol-2-yl)-hydroxy-methyl]-3-methyl-isoxazol-5-yl}-biphenyl-4-yl)-cyclopropyl]-acetic acid] | > 6.52 | –
12 | Cc1noc(-c2ccc(-c3ccc(C4(C(=O)NS(C)(=O)=O)CC4)cc3)cc2)c1C(O)c1cn(Cc2ccccc2)nn1 (single isomer, unassigned) [Compound 3-1, N-[1-(4′-{4-[(1-Benzyl-1H-[1,2,3]triazol-4-yl)-hydroxy-methyl]-3-methyl-isoxazol-5-yl}-biphenyl-4-yl)-cyclopropanecarbonyl]-methanesulfonamide] | > 6.52 | –
13 | Cc1noc(-c2ccc(-c3ccc(C4(C(=O)O)CC4)cc3)cc2)c1Nc1cccc(-c2cc(F)ccc2Cl)n1 [Compound 1-151, 1-(4′-{4-[6-(2-Chloro-5-fluoro-phenyl)-pyridin-2-ylamino]-3-methyl-isoxazol-5-yl}-biphenyl-4-yl)-cyclopropanecarboxylic acid] | > 6.52 | –
14 | Cc1noc(-c2ccc(-c3ccc(C4(C(=O)O)CC4)cc3)cc2)c1Nc1nnc(-c2ccccc2)o1 [Compound 1-80, 1-{4′-[3-Methyl-4-(5-phenyl-[1,3,4]oxadiazol-2-ylamino)-isoxazol-5-yl]-biphenyl-4-yl}-cyclopropanecarboxylic acid] | > 6.52 | –
